Here are results for six compounds from PubChem BioAssay AID1259407 (Chemical Carcinogenesis Research Information System (CCRIS), 2018).

Activity calls are given as the source filed them. No rule for the calls is given here.

In the data set the test system is CCRIS mutagenicity, Ames/micronucleus/aberration tests. Description: CCRIS mutagenicity studies.
Where [1] appears, read: Test System: AMES SALMONELLA TYPHIMURIUM, Strain/Indicator: TA98, Metabolic Activation: NONE, Method: PREINCUBATION
Setting [2] is: Test System: AMES SALMONELLA TYPHIMURIUM, Strain/Indicator: TA100, Metabolic Activation: NONE, Method: PREINCUBATION
Where [3] appears, read: Test System: AMES SALMONELLA TYPHIMURIUM, Strain/Indicator: TA1535, Metabolic Activation: NONE, Method: PREINCUBATION
Setting [4] is: Test System: AMES SALMONELLA TYPHIMURIUM, Strain/Indicator: TA1537, Metabolic Activation: NONE, Method: PREINCUBATION
Where [5] appears, read: Test System: AMES SALMONELLA TYPHIMURIUM, Strain/Indicator: TA98, Metabolic Activation: NONE, Method: STANDARD PLATE.
Where [6] appears, read: Test System: AMES SALMONELLA TYPHIMURIUM, Strain/Indicator: TA100, Metabolic Activation: NONE, Method: STANDARD PLATE.

Consider `O=C(O)CS`, for which the mutagenic call (Test System: AMES SALMONELLA TYPHIMURIUM, Strain/Indicator: TA97, Metabolic Activation: HAMSTER, LIVER, S-9, AROCLOR 1254 (10 OR 30%), Method: PREINCUBATION) is “inactive; negative”; the mutagenic call (Test System: AMES SALMONELLA TYPHIMURIUM, Strain/Indicator: TA97, Metabolic Activation: NONE, Method: PREINCUBATION) is “inactive; negative”; the mutagenic call (Test System: AMES SALMONELLA TYPHIMURIUM, Strain/Indicator: TA97, Metabolic Activation: RAT, LIVER, S-9, AROCLOR 1254 (10 OR 30%), Method: PREINCUBATION) was “inactive; negative”; the mutagenic call (Test System: AMES SALMONELLA TYPHIMURIUM, Strain/Indicator: TA98, Metabolic Activation: HAMSTER, LIVER, S-9, AROCLOR 1254 (10%), Method: PREINCUBATION) is “inactive; negative”; the mutagenic call (Test System: AMES SALMONELLA TYPHIMURIUM, Strain/Indicator: TA98, Metabolic Activation: HAMSTER, LIVER, S-9, AROCLOR 1254 (10 OR 30%), Method: PREINCUBATION) is “inactive; negative”; the mutagenic call under setting [1] is “inactive; negative”. The mutagenic call is, setting by setting: (Test System: AMES SALMONELLA TYPHIMURIUM, Strain/Indicator: TA98, Metabolic Activation: RAT, LIVER, S-9, AROCLOR 1254 (10%), Method: PREINCUBATION) “inactive; negative”; (Test System: AMES SALMONELLA TYPHIMURIUM, Strain/Indicator: TA98, Metabolic Activation: RAT, LIVER, S-9, AROCLOR 1254 (10 OR 30%), Method: PREINCUBATION) “inactive; negative”; (Test System: AMES SALMONELLA TYPHIMURIUM, Strain/Indicator: TA100, Metabolic Activation: HAMSTER, LIVER, S-9, AROCLOR 1254 (10%), Method: PREINCUBATION) “inactive; negative”; (Test System: AMES SALMONELLA TYPHIMURIUM, Strain/Indicator: TA100, Metabolic Activation: HAMSTER, LIVER, S-9, AROCLOR 1254 (10 OR 30%), Method: PREINCUBATION) “inactive; negative”; under setting [2], “inactive; negative”; (Test System: AMES SALMONELLA TYPHIMURIUM, Strain/Indicator: TA100, Metabolic Activation: RAT, LIVER, S-9, AROCLOR 1254 (10%), Method: PREINCUBATION) “inactive; negative”. Further, the mutagenic call reads like this: (Test System: AMES SALMONELLA TYPHIMURIUM, Strain/Indicator: TA100, Metabolic Activation: RAT, LIVER, S-9, AROCLOR 1254 (10 OR 30%), Method: PREINCUBATION) “inactive; negative”; (Test System: AMES SALMONELLA TYPHIMURIUM, Strain/Indicator: TA1535, Metabolic Activation: HAMSTER, LIVER, S-9, AROCLOR 1254 (10%), Method: PREINCUBATION) “inactive; negative”; (Test System: AMES SALMONELLA TYPHIMURIUM, Strain/Indicator: TA1535, Metabolic Activation: HAMSTER, LIVER, S-9, AROCLOR 1254 (10 OR 30%), Method: PREINCUBATION) “inactive; negative”; under setting [3], “inactive; negative”; (Test System: AMES SALMONELLA TYPHIMURIUM, Strain/Indicator: TA1535, Metabolic Activation: RAT, LIVER, S-9, AROCLOR 1254 (10%), Method: PREINCUBATION) “inactive; negative”; (Test System: AMES SALMONELLA TYPHIMURIUM, Strain/Indicator: TA1535, Metabolic Activation: RAT, LIVER, S-9, AROCLOR 1254 (10 OR 30%), Method: PREINCUBATION) “inactive; negative”. For the same compound, the mutagenic call (Test System: AMES SALMONELLA TYPHIMURIUM, Strain/Indicator: TA1537, Metabolic Activation: HAMSTER, LIVER, S-9, AROCLOR 1254 (10%), Method: PREINCUBATION) is “inactive; negative”; the mutagenic call under setting [4] was “inactive; negative”; the mutagenic call (Test System: AMES SALMONELLA TYPHIMURIUM, Strain/Indicator: TA1537, Metabolic Activation: RAT, LIVER, S-9, AROCLOR 1254 (10%), Method: PREINCUBATION) was “inactive; negative”.

Consider `O[C@@H]([C@H](O)[C@H](O)CBr)[C@H](O)CBr`, for which the mutagenic call is, setting by setting: under setting [5], “inactive; negative”; under setting [6], “inactive; negative”; (Test System: AMES SALMONELLA TYPHIMURIUM, Strain/Indicator: TA100, Metabolic Activation: S-9, Method: STANDARD PLATE) “active; positive”; (Test System: E. COLI, Strain/Indicator: WP2 (HCR), Metabolic Activation: NONE, Method: STANDARD PLATE) “inactive; negative”; (Test System: E. COLI, Strain/Indicator: WP2 (HCR), Metabolic Activation: S-9, Method: STANDARD PLATE) “active; positive”.

As for `Nc1nc2c(ncn2CCC(CO)CO)c(=O)[nH]1`, where the note is “End Point: IN VITRO CHROMOSOMAL ABERRATIONS, Test System: CHO CELLS (CHO-HSVTK), Metabolic Activation: NONE”, the mutagenic call was “active; positive (pulverized chromosome and condensation defects); concentration chosen”.

In the case of `OCCNCCO`, the mutagenic call by setting is: (End Point: IN VITRO CHROMOSOMAL ABERRATIONS, Test System: CHO CELLS, Metabolic Activation: NONE) “inactive; negative”; (End Point: IN VITRO CHROMOSOMAL ABERRATIONS, Test System: CHO CELLS, Metabolic Activation: RAT, LIVER, S-9, AROCLOR 1254) “inactive; negative; weak response at highest dose”; (Test System: AMES SALMONELLA TYPHIMURIUM, Strain/Indicator: TA98, Metabolic Activation: HAMSTER, LIVER, S-9, AROCLOR 1254, Method: PREINCUBATION) “inactive; negative”; under setting [1], “inactive; negative”; (Test System: AMES SALMONELLA TYPHIMURIUM, Strain/Indicator: TA98, Metabolic Activation: RAT, LIVER, S-9, AROCLOR 1254, Method: PREINCUBATION) “inactive; negative”; (Test System: AMES SALMONELLA TYPHIMURIUM, Strain/Indicator: TA100, Metabolic Activation: HAMSTER, LIVER, S-9, AROCLOR 1254, Method: PREINCUBATION) “inactive; negative”. Moreover, the mutagenic call is, setting by setting: under setting [2], “inactive; negative”; (Test System: AMES SALMONELLA TYPHIMURIUM, Strain/Indicator: TA100, Metabolic Activation: RAT, LIVER, S-9, AROCLOR 1254, Method: PREINCUBATION) “inactive; negative”; (Test System: AMES SALMONELLA TYPHIMURIUM, Strain/Indicator: TA1535, Metabolic Activation: HAMSTER, LIVER, S-9, AROCLOR 1254, Method: PREINCUBATION) “inactive; negative”; under setting [3], “inactive; negative”; (Test System: AMES SALMONELLA TYPHIMURIUM, Strain/Indicator: TA1535, Metabolic Activation: RAT, LIVER, S-9, AROCLOR 1254, Method: PREINCUBATION) “inactive; negative”; (Test System: AMES SALMONELLA TYPHIMURIUM, Strain/Indicator: TA1537, Metabolic Activation: HAMSTER, LIVER, S-9, AROCLOR 1254, Method: PREINCUBATION) “inactive; negative”. Besides, the mutagenic call was “inactive; negative” under setting [4] and “inactive; negative” (Test System: AMES SALMONELLA TYPHIMURIUM, Strain/Indicator: TA1537, Metabolic Activation: RAT, LIVER, S-9, AROCLOR 1254, Method: PREINCUBATION).

As for `CC(=O)OCCCCONC(=O)c1ccccc1`, the mutagenic call is, setting by setting: under setting [5], “active; positive”; under setting [6], “active; positive”; (Test System: AMES SALMONELLA TYPHIMURIUM, Strain/Indicator: TA100, Metabolic Activation: RAT,S-9, AROCLOR, Method: STANDARD PLATE) “active; positive”.

On to `O=[N+]([O-])c1c2c3c(ccc4cccc(c43)CC2)c2ccccc12`, for which the mutagenic call under setting [5] was “active; positive” and the mutagenic call under setting [6] is “inactive; negative”.
